Values quoted from earlier work as cited in patent US20210023011A1, “METHOD AND SYSTEM FOR PRODUCING HIGH PURITY VANCOMYCIN HYDROCHLORIDE” (ZHEJIANG MEDICINE CO., LTD, priority 2013, published 2021).
Structures can show the parent of a compound that is named as a salt.

Columns and labels:
[1] = lyophilized powder

In the case of `CN[C@H](CC(C)C)C(=O)N[C@H]1C(=O)N[C@@H](CC(N)=O)C(=O)N[C@H]2C(=O)N[C@H]3C(=O)N[C@H](C(=O)N[C@H](C(=O)O)c4cc(O)cc(O)c4-c4cc3ccc4O)[C@H](O)c3ccc(c(Cl)c3)Oc3cc2cc(c3O[C@@H]2O[C@H](CO)[C@@H](O)[C@H](O)[C@H]2O[C@H]2C[C@](C)(N)[C@H](O)[C@H](C)O2)Oc2ccc(cc2Cl)[C@H]1O` [vancomycin hydrochloride, Vancomycin hydrochloride], the solubility in alcohol [1] is given as “slightly soluble”, the solubility in water [1] is given as “freely soluble” and the “decrease of chromatographic purity” value (lyophilization at low temperature) is given as ≥ 0.5%. For the same molecule, the “decrease of purity level of the solution” value (vacuum drying at 40° C. within 8 hours) was “more than 1.0%”.
